Measurements: patent publication US20230149516A1, “USE OF PEPTIDYLGLYCINE ALPHA-AMIDATING MONOOXYGENASE (PAM) FOR THERAPEUTIC PURPOSE” (PAM THERAGNOSITICS GMBH, priority 2020, published 2023)
Blank lines part the entries; values can stand above or below the molecule they belong to.

Experiments:
[1] = target: T1, adrenomedullin-Gly (ADM-Gly) (UniProt P35318)
T1 sequence: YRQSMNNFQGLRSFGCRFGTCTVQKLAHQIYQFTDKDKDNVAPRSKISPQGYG

bio-ADM = assay: Circulating bio-ADM concentration in rats after intravenous injection of PAM, ascorbate or both; format: in vivo, Wistar rats
[2] = target: T2, circulating human PAM activity (Homo sapiens, UniProt P19021); assay: Amidating activity in healthy human volunteers after oral ascorbate uptake, measured without exogenous ascorbate; format: in vivo; conditions: 2000 mg oral single dose
T2 construct: Human serum or Li-Heparin plasma from self-reported healthy volunteers was used as source of human native PAM; from tissue; host or cells: Li-heparin plasma and serum of healthy human volunteers
T2 sequence (P19021 31-973): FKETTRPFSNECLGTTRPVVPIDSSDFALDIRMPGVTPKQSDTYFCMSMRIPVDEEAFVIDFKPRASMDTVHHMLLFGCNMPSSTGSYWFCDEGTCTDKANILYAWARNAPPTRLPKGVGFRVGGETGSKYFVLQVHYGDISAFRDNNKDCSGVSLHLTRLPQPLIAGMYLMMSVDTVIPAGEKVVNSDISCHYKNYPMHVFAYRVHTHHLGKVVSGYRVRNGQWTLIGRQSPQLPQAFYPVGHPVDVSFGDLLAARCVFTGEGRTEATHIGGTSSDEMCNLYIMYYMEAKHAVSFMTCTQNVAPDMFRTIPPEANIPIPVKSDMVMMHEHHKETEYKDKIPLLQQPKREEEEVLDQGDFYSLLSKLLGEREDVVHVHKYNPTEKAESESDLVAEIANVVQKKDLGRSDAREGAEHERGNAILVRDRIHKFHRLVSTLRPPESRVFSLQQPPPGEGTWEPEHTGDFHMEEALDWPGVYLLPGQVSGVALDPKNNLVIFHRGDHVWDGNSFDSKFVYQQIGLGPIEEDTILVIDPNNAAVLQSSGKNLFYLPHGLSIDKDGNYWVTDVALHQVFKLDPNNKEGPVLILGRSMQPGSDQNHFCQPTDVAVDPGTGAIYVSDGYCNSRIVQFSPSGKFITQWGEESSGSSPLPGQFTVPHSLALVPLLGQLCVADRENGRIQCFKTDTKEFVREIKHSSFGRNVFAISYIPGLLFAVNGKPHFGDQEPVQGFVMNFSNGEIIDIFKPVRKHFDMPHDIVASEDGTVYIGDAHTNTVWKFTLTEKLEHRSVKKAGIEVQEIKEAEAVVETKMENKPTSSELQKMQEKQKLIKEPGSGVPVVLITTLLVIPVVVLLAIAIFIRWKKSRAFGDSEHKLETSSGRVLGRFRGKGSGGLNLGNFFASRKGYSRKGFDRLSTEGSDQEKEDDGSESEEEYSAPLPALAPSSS
Description: FIG. 23: Amidating activity in healthy human volunteers before (0 h) and after oral ascorbate uptake measured without addition of exogenous ascorbate. AMA at t=0 h was set as 100%.
Human serum or Li-Heparin plasma from self-reported healthy volunteers was used as source of human native PAM. Each sample (20 μl) was diluted two-fold in 100 mM Tris-HCl in duplicate. The amidation reaction was initiated by addition of 160 μl of PAM-reaction buffer (100 mM Tris-HCl, pH 7.5, 6.25 μM CuSO4, 2.5 mM L-ascorbate, 125 μg/mL catalase, 62.5 μM amastatin, 250 μM leupeptin, 36 ng/mL synthetic ADM-Gly and 375 μg/mL NT-ADM antibody). Afterwards, 100 μl of each individual reaction of duplicated samples were combined and transferred into 20 μl of 200 mM EDTA to terminate the amidation reaction and to generate t=0 minutes reaction time-point followed by incubation at 37° C. for 40 minutes. Afterwards the non-terminated reactions were stopped with 10 μl of 200 mM EDTA. To determine the PAM activity, bio-ADM as reaction product was quantified in each sample using the Sphingotest® bio-ADM immunoassay (Weber et al. 2017). The amidation assay was calibrated using a 6-point calibration curve generated with human recombinant PAM of known activity. Samples and calibrators were treated in the same manner. Relative light units (RLU t40 min-t0 min) determined via Sphingotest® bio-ADM immunoassay for each sample were fitted against the RLU (t40 min-t0 min) of the calibrator to determine the PAM activity in the samples. PAM activity is described as “adrenomedullin maturation activity” (AMA) in μg bio-ADM formed per hour and L of sample.
Healthy volunteers (n=4) received 2000 mg of vitamin C (Dr. Scheffler, Additiva® Vitamin C) as an oral single dose. Blood sampling was performed prior to- and 1, 2 and 3 hours post administration. Basal amidating activity was determined from Li-heparin plasma and serum as described in example 3 in absence of exogenous ascorbate addition and is shown in FIG. 23.

PAM activity = assay: Circulating PAM activity in rats after intravenous injection of PAM, ascorbate or both, measured without exogenous ascorbate; format: in vivo, Wistar rats
[3] = target: T3, adrenomedullin-Gly (ADM-Gly), P35318
T3 chain: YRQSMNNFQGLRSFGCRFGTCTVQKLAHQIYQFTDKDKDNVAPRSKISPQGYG

Molecule: native human PAM in human plasma or serum
formation of bio-ADM (Sphingotest bio-ADM immunoassay) in human Li-Heparin plasma [1]: When ADM-Gly was added to the sample, a linear formation of bio-ADM was detected within 90 minutes
formation of bio-ADM from endogenous ADM-Gly in human Li-Heparin plasma [1]: endogenous human PAM enzyme is capable of the conversion of endogenous human ADM-Gly to bioADM in a time-dependent manner

PAM activity elevated by the factor compared to prior to ascorbate uptake ([2]; 1 h after uptake): 1.7
PAM activity elevated by the factor compared to prior to ascorbate uptake ([2]; 2 h post uptake): ~2
PAM activity elevated by the factor compared to prior to ascorbate uptake ([2]; 3 h post uptake): ~2
Molecule: O=C1O[C@H]([C@@H](O)CO)C(O)=C1O [Ascorbate, vitamin C, reference compound]
bio-ADM concentration elevated by the factor (normalized to placebo) (bio-ADM; after 15 min): 1.4
bio-ADM concentration elevated by the factor (normalized to placebo) (bio-ADM; after 30 min): 1.4
bio-ADM concentration elevated by the factor (normalized to placebo) (bio-ADM; after 45 min): 1.2
bio-ADM concentration elevated by the factor (normalized to placebo) (bio-ADM; after 60 min): returned to baseline levels
bio-ADM concentration compared to the Placebo group (bio-ADM; after 120 minutes): not significantly different
PAM activity compared to placebo group (PAM activity; 120 min past injection): comparable to PAM activity in the placebo group
time of maximal elevation of PAM activity past injection (PAM activity; single i.v. injection): 15 min
elevation of circulating PAM activity (PAM activity; single i.v. injection of 500 μl (PAM 50 μg/mL, ascorbate 40 mg/mL), vs placebo): non-significant elevation
time PAM activity remained elevated after injection (PAM activity; single i.v. injection, significantly elevated for PAM and the combination): 60 min

B1: recombinant human PAM (peptidylglycine alpha-amidating monooxygenase, amino acids 21-834, C-terminal hexa-histidine tag linked via a GS linker) (protein)
chain: SPLSVFKRFKETTRPFSNECLGTTRPVVPIDSSDFALDIRMPGVTPKQSDTYFCMSMRIPVDEEAFVIDFKPRASMDTVHHMLLFGCNMPSSTGSYWFCDEGTCTDKANILYAWARNAPPTRLPKGVGFRVGGETGSKYFVLQVHYGDISAFRDNNKDCSGVSLHLTRLPQPLIAGMYLMMSVDTVIPAGEKVVNSDISCHYKNYPMHVFAYRVHTHHLGKVVSGYRVRNGQWTLIGRQSPQLPQAFYPVGHPVDVSFGDLLAARCVFTGEGRTEATHIGGTSSDEMCNLYIMYYMEAKHAVSFMTCTQNVAPDMFRTIPPEANIPIPVKSDMVMMHEHHKETEYKDKIPLLQQPKREEEEVLDQGDFYSLLSKLLGEREDVVHVHKYNPTEKAESESDLVAEIANVVQKKDLGRSDAREGAEHERGNAILVRDRIHKFHRLVSTLRPPESRVFSLQQPPPGEGTWEPEHTGDFHMEEALDWPGVYLLPGQVSGVALDPKNNLVIFHRGDHVWDGNSFDSKFVYQQIGLGPIEEDTILVIDPNNAAVLQSSGKNLFYLPHGLSIDKDGNYWVTDVALHQVFKLDPNNKEGPVLILGRSMQPGSDQNHFCQPTDVAVDPGTGAIYVSDGYCNSRIVQFSPSGKFITQWGEESSGSSPLPGQFTVPHSLALVPLLGQLCVADRENGRIQCFKTDTKEFVREIKHSSFGRNVFAISYIPGLLFAVNGKPHFGDQEPVQGFVMNFSNGEIIDIFKPVRKHFDMPHDIVASEDGTVYIGDAHTNTVWKFTLTEKLEHRSVKKAGIEVQEIKEAEAVVGSHHHHHH
bio-ADM synthesis rate [3]: by an averaged factor of 1.8 at each time-point
